ChEMBL document CHEMBL3228042, “Stereochemical aspects of the metabolism of 5-(4'-fluorophenyl)-5-phenylhydantoin in the rat” (J Med Chem, 1979)

Key:
Format in all cases: ADME, organism-based
Conditions in all cases: in vivo
[1] = Drug metabolism in ip dosed Wistar rat assessed as 5-(3',4'-dihydroxyphenyl)-5-(4'-fluorophenyl)hydantoin level in urine up to 96 hrs by GC-MS analysis
[2] = Drug metabolism in ip dosed Wistar rat assessed as (R,S)-5-(3',4'-dimethoxyphenyl)-5-(4'-fluorophenyl)hydantoin level in urine up to 96 hrs by GC-MS analysis
[3] = Drug metabolism in ip dosed Wistar rat assessed as 3'-O-methyl derivative level in urine up to 96 hrs by GC-MS analysis
[4] = Drug metabolism in ip dosed Wistar rat assessed as 5-(4'-fluorophenyl)-5-(4'-hydroxyphenyl)hydantoin level in urine up to 96 hrs by GC-MS analysis
[5] = Drug metabolism in ip dosed Wistar rat assessed as […] level in urine up to 96 hrs by GC-MS analysis
[6] = Drug metabolism in ip dosed Wistar rat assessed as (R)-(-)-5-(4'-fluorphenyl)-5-(4'-hydroxyphenyl)hydantoin level in urine up to 96 hrs by TLC analysis

Drug metabolism [1] | Drug metabolism [2] | Drug metabolism [3] | Drug metabolism [4] | Drug metabolism [5] | Drug metabolism [6] | Compound
metabolite_detected | metabolite_detected | metabolite_detected | metabolite_detected | metabolite_detected |  | O=C1NC(=O)C(c2ccccc2)(c2ccc(F)cc2)N1 (stereo unspecified)
metabolite_detected | metabolite_detected | metabolite_detected | metabolite_detected | metabolite_detected |  | O=C1[N-]C(=O)C(c2ccccc2)(c2ccc(F)cc2)N1.[Na+] (racemic)
 |  |  |  |  | metabolite_detected | O=C1NC(=O)C(c2ccc(O)cc2)(c2ccc(F)cc2)N1 (racemic)
